This is an account of results in patent publication US20190224213A1, “VAGINAL COMPOSITION COMPRISING A COMBINATION OF ESTROGEN AND VITAMIN D” (CHEMO RESEARCH S.L., priority 2016, published 2019).

In data set [1] the test system is vaginal atrophy. The settings on record: vaginal suppository 1000 IU, daily for 8 weeks, 44 postmenopausal women; cited from earlier work.
For data set [2], the system named is vaginal maturation index and urogenital symptoms. The settings on record: oral raloxifene 60 mg/day with 400 IU vitamin D and 600 mg calcium, 3 months, vs risedronate-based regimen; cited from earlier work.
Data set [3] has as its system vaginal epithelium. Put plainly: Vaginal epithelium thickness evaluation in ovariectomized rats. The format is in vivo, rat. The settings on record: 6-week treatment. The source says: (§1) 8-10 weeks-old female Sprague Dawley rats (Janvier, France) are first acclimated during a period of time of one week or more.
(§2) The acclimated rats undergo a bilateral ovariectomy (at “Day 0”), so as to induce an experimental menopause.
(§3) Three weeks after ovariectomy (at Day 21), the ovariectomized rats are divided in five distinct groups of at least eight animals per group, respectively: • Group 1: the ovariectomized rats receive no treatment at all • Group 2: the ovariectomized rats are administered once daily with an ovule comprising a liquid saline (placebo) • Group 3: the ovariectomized rats are administered once daily with an ovule comprising estradiol alone, in the absence of vitamin D analog • Group 4: the ovariectomized rats are administered once daily with an ovule comprising vitamin D analog alone, in the absence of estradiol. • Group 5: the ovariectomized rats are administered once daily with an ovule comprising (i) the combination of estradiol and vitamin D analog.
(§4) Each of the Groups 1, 2, 3, 4 and 5 of ovariectomized rats receives the indicated treatment during a period of time of six weeks (thus until Day 63).
One part of the vagina tissue material is paraffin-embedded. Slices of the paraffin-embedded vaginal tissue are stained for studying and measuring the vaginal epithelium thickness as well as the vaginal epithelium morphology. […]

Data set [4] has as its system vaginal epithelium. Description: Vaginal Maturation Index: percentage of leukocytes in vaginal smears of ovariectomized rats. In kind it is in vivo, rat. The settings on record: calcitriol alone at 0.006 μg. The procedure: as §3, §4
(§5) Smears of vaginal tissue are collected from each of the tested animal by gentle scraping along the wall of the vagina the day before the first treatment and the day following the last treatment for determining the Vaginal Maturation Index (VMI).
(§6) For each rat, 2 samples are taken by gentle scraping along the wall of the vagina. […]
(§7) VMI is assessed as a ratio obtained through performing a random count of 3 major cell types. […]

The nature of data set [5]: Calcium plasma level in ovariectomized rats. The format is in vivo, rat. The procedure: as §3, §4
Data set [6] is described as follows: Body weight evolution in ovariectomized rats during 6-week local treatment. The settings on record: 6-week treatment, irrespective of the dose. The format is in vivo, rat.
Description: as §1, §2, §3, §4
The body weight of each tested animal is monitored twice a week.

Data set [7] concerns vaginal epithelium. The settings on record: oral 0.500 mcg calcitriol/day, at least one year, vs non-supplemented postmenopausal women; cited from earlier work.
Data set [8] has as its system vaginal epithelium. Put plainly: Vaginal Maturation Index: percentage of cornified cells in vaginal smears of ovariectomized rats. In kind it is in vivo, rat. The settings on record: calcitriol, irrespectively of the doses tested. The procedure: as §3, §4, §5, §6, §7
Data set [9] has as its system vaginal epithelium. Description: Histology of the vaginal tissue cornified cell layer in ovariectomized rats (FIG. 3). In kind it is in vivo, rat. As to the method:
as §3, §4
One part of the vagina tissue material is paraffin-embedded. Slices of the paraffin-embedded vaginal tissue are stained for studying and measuring the vaginal epithelium thickness as well as the vaginal epithelium morphology.
Vaginal tissue is then separated into two parts: • one half is fixed in 10% neutral buffered formalin and paraffin-embedded for epithelium thickness evaluation and morphology (H&E coloration) • the second half will be immediately frozen and stored at −80° C. for further evaluation.
Vaginal tissue is embedded in paraffin, sectioned and stained with hematoxylin/eosine (2 slides/rat) using a fully automated multi-stainer system for histological analysis, the Multistainer ST5020 in conjunction with the CV5030 Coverslipper marketed by the Company Leica Biosystems (Germany).

For the molecule vitamin D, in data set [1], the “superficial cells in the vaginal epithelium” value was “significant increase” and the “vaginal pH” value is “significant decrease”.

Turning to `O=C(c1ccc(OCCN2CCCCC2)cc1)c1c(-c2ccc(O)cc2)sc2cc(O)ccc12` [raloxifene], in data set [2], the vaginal maturation index result is on record as “improvement” and the “vaginal pH” value is “improvement”.

On to `C=C1/C(=C\C=C2/CCC[C@]3(C)[C@@H]([C@H](C)CCCC(C)(C)O)CC[C@@H]23)C[C@@H](O)C[C@@H]1O` [Calcitriol, 1α,25-dihydroxyvitamin D3], for which the “vaginal epithelium thickness as compared to placebo” value in data set [3] (calcitriol alone, irrespective of the dose tested) is given as “did not cause any change”. The “vaginal epithelium content in leukocytes” value in data set [4] is “no effect”. Moreover, the “calcium plasma level: significance versus placebo” value in [5] (Calcitriol 0.08 μg) and in data set [5] (Calcitriol 0.1 μg) was “**** (“****” means p<0.001 versus placebo)” in each case. For the same molecule, the calcium plasma level result is given as “did not cause any significant change” in [5] (calcitriol dose 0.006 μg), “significantly increased” in [5] (dose of 0.08 μg) and “significantly increased” in data set [5] (dose of 0.1 μg). In addition, the body weight evolution result in [6] was “did not cause any change”. Further, in [7], the “squamous maturation of the vaginal epithelium” value is “resulted in squamous maturation”. Further, the “content of the vaginal epithelium cornified cells” value in [8] is “no significant change”.

Turning to `C[C@]12CC[C@@H]3c4ccc(O)cc4CC[C@H]3[C@@H]1CC[C@@H]2O` [Estradiol, (17beta)-estra-1,3,5(10)-triene-3,17-diol], the “vaginal epithelium thickness as compared to placebo” value in data set [3] (0.4 μg dose of estradiol) was “high increase”. Besides, in data set [6], the body weight evolution result was “did not cause any change”. Also, the “cornified cell layer in histological photograph” value in [9] (0.02 μg dose of estradiol (FIG. 3B)) is “does not cause a detectable change”; in [9] (0.08 μg estradiol (FIG. 3C)), “thickness and a density which increase with the increasing doses”; in data set [9] (0.4 μg estradiol (FIG. 3D)) it was “thickness and a density which increase with the increasing doses”.
